Calls of active or inactive are those of the source.
Legend:
[1] = biological target: T1, Replicative DNA helicase DnaB (Mycobacterium tuberculosis, UniProt P9WMR3); experiment: DnaB intein splicing inhibitors, dose response, biochemical, cell-free fluorescence (AID 449749); assay type: functional
T1 sequence (P9WMR3 whole entry): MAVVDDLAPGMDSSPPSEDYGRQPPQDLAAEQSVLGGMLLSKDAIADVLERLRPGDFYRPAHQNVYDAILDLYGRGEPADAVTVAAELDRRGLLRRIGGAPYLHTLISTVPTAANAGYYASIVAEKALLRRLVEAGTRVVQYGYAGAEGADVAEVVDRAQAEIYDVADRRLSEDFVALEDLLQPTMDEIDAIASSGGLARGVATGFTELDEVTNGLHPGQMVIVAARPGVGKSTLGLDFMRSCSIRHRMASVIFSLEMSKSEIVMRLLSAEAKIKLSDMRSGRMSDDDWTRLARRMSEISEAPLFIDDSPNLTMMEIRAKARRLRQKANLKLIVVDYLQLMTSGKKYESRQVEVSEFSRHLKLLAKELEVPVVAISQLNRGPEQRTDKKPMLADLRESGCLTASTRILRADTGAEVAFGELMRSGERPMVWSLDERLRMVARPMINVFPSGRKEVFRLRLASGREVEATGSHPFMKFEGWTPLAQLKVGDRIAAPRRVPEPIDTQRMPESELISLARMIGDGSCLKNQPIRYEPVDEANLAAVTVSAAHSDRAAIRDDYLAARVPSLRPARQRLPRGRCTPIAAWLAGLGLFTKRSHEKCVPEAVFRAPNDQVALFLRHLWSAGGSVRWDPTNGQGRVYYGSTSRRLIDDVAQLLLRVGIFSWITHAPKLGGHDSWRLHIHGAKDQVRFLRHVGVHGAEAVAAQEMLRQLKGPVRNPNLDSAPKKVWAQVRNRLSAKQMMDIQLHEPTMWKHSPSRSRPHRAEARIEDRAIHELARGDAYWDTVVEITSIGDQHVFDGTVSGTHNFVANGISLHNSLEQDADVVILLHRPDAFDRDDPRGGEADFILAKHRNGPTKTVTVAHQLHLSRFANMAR

Protein RecA = biological target: T2, Protein RecA (Mycobacterium tuberculosis, UniProt P9WHJ3); experiment: Fluorescence Cell-Free Homogeneous Dose Retest to Identify Inhibitors of RecA-Intein Splicing Activity. [Related pubchem assays (depositor defined):AID2097, AID2223, AID489010, AID492950]; assay type: functional
T2 sequence (P9WHJ3 whole entry): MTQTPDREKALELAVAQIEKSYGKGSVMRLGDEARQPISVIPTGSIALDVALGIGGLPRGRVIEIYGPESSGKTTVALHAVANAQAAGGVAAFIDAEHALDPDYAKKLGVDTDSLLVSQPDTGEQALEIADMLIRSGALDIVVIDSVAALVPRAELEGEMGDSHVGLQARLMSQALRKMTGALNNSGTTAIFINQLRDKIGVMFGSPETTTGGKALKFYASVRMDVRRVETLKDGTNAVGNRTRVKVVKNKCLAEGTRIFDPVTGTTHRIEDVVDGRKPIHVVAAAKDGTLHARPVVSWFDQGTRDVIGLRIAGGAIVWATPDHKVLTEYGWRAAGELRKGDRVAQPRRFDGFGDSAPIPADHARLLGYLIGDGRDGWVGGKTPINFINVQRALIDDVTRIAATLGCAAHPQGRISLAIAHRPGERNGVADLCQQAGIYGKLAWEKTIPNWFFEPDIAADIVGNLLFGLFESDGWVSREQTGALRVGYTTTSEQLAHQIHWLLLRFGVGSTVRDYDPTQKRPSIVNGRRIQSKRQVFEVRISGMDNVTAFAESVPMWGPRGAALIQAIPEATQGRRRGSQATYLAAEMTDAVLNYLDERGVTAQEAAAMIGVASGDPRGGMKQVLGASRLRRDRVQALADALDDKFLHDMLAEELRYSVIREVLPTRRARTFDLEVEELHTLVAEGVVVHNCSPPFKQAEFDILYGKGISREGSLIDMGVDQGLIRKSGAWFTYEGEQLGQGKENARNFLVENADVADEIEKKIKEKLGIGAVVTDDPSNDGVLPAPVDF

[2] = biological target: T3, Probable nicotinate-nucleotide adenylyltransferase (Staphylococcus aureus (strain N315), UniProt P65502); assay type: functional, Staphylococcus aureus subsp. aureus N315;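 for IC50 Mean: confirmatory dose-response retesting of NadD inhibitor hits first found in an ultra-high-throughput screen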
T3 sequence (P65502 whole entry): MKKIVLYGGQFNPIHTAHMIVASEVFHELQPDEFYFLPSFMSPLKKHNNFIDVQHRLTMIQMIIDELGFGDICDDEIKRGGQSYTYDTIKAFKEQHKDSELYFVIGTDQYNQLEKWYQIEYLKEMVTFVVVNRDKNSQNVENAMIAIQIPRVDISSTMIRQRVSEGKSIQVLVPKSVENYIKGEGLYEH

[3] = biological target: T3, Probable nicotinate-nucleotide adenylyltransferase; assay type: functional, Staphylococcus aureus subsp. aureus N315; conditions: read-out: IC50_Mean
BJ [4] = experiment: cytotoxicity toward BJ-TERT fibroblasts, dose response, cell-based, RAS-independent, luminescence (AID 1933); assay type: functional; conditions: Homo sapiens
BJ [5] = experiment: cells; assay type: functional, cell-based; conditions: Homo sapiens
BJ [6] = experiment: cytotoxicity toward BJ-TERT-LT-ST fibroblasts, dose response, cell-based, RAS-independent, luminescence (AID 1935); assay type: functional; conditions: Homo sapiens;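 note: BJ fibroblasts immortalized with TERT plus LT and ST oncogenes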
[7] = cytotoxicity toward DRD oncogenic fibroblasts, dose response, cell-based, non-viral oncogenic, luminescence (AID 1934); assay type: functional; conditions: Homo sapiens
[8] = cytotoxicity in HEK-293T cells, dose response, cytotoxicity control for TCR NF-kB inhibitor project, luminescence, T-cell screen hits (AID 489026); assay type: functional, cell-based;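 note: cells exposed to compound about 14 hours before the viability readout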
HEK293 [9] = experiment: inhibitors of LMP1-driven NF-kB reporter, dose response, cell-based, HEK293, luciferase, cherry-pick (AID 588343); assay type: functional; conditions: Homo sapiens
BJ [10] = experiment: cytotoxicity toward Ras-transformed BJeLR fibroblasts, dose response, cell-based, alamar blue fluorescence, cherrypicked samples (AID 2631); assay type: functional; conditions: Homo sapiens;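 note: confirmatory dose-response assay in RAS-dependent BJ fibroblasts engineered with TERT, LT and ST, with cytotoxicity read by fluorescence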
[11] = biological target: T4, Short transient receptor potential channel 4 (Mus musculus, UniProt Q9QUQ5); experiment: mouse TRPC4 channel inhibitors, dose response, cell-based, HEK293 TRPC4/mu-opioid, Fluo-4 calcium (AID 434942); assay type: functional;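 note: potency of inhibitors blocking the TRPC4 calcium response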
T4 sequence (Q9QUQ5 whole entry): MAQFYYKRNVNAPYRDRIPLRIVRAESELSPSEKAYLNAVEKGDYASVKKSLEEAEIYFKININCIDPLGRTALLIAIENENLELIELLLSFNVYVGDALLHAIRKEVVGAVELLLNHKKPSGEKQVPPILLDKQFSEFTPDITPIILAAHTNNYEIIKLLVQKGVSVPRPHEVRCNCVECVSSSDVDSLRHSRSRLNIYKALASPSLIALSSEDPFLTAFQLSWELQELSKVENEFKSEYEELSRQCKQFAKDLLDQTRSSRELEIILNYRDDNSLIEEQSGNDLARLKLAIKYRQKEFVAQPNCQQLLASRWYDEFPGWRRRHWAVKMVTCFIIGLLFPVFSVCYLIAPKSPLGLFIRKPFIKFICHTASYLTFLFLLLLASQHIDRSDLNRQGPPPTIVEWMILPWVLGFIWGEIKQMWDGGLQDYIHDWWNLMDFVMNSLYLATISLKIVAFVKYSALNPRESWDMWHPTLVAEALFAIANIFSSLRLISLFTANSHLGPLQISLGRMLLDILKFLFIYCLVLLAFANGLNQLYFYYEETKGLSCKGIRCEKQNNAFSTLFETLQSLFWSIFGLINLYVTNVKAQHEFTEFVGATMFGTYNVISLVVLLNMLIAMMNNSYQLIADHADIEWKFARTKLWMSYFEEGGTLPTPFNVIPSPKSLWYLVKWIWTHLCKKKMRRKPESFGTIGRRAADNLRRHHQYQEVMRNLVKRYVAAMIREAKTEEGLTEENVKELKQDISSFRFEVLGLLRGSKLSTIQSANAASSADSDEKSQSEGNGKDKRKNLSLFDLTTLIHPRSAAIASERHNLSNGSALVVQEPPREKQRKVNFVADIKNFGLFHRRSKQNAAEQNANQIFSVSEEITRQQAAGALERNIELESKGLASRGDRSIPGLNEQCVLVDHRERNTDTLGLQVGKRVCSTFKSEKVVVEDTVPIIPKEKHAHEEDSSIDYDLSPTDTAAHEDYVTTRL

[12] = biological target: T5, Corticotropin-releasing factor receptor 2/Corticotropin-releasing factor-binding protein (Homo sapiens, UniProt P24387+Q13324); experiment: Dose Response confirmation of uHTS hits for small molecule antagonists of the CRF-binding protein and CRF-R2 receptor complex.; assay type: functional; conditions: read-out: IC50_Mean
T5 sequence (Q13324 whole entry): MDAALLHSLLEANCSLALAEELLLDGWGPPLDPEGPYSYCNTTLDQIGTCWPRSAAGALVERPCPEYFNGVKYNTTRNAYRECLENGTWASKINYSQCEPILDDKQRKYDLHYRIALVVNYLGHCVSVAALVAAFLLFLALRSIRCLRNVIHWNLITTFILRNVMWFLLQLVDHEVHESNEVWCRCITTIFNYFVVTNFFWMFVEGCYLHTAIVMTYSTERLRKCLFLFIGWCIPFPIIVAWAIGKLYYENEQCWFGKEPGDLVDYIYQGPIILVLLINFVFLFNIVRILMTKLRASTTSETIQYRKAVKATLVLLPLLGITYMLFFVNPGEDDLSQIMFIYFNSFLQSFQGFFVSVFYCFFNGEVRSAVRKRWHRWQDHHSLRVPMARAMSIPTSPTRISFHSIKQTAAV
T5 sequence (P24387 whole entry): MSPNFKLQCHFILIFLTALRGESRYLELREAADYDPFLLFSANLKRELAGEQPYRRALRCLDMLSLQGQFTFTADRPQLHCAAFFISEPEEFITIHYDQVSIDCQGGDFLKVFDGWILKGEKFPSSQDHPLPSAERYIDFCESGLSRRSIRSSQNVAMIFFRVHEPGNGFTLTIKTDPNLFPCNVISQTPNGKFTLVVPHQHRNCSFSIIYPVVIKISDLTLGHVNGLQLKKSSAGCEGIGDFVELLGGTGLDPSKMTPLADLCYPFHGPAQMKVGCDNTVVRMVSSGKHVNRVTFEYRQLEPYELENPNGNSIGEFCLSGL

[13] = biological target: T5, Corticotropin-releasing factor receptor 2/Corticotropin-releasing factor-binding protein; experiment: activators of CRF receptor 2 with binding protein – uHTS hits, confirmation (AID 602473); assay type: functional; conditions: read-out: EC50_Mean
[14] = CRF-BP/CRF-R2 complex antagonists, dose response, cell-based, uHTS hits, 384-well (AID 651639); assay type: functional, Homo sapiens; conditions: read-out: IC50_Mean
Leucine aminopeptidase = biological target: T6, Leucine aminopeptidase (Plasmodium falciparum 3D7, UniProt Q8IL11); experiment: P. falciparum M17LAP inhibitors, primary screen, biochemical, fluorogenic H-Leu-NHMec substrate, 1536-well (AID 1619); assay type: functional
T6 sequence (Q8IL11 whole entry): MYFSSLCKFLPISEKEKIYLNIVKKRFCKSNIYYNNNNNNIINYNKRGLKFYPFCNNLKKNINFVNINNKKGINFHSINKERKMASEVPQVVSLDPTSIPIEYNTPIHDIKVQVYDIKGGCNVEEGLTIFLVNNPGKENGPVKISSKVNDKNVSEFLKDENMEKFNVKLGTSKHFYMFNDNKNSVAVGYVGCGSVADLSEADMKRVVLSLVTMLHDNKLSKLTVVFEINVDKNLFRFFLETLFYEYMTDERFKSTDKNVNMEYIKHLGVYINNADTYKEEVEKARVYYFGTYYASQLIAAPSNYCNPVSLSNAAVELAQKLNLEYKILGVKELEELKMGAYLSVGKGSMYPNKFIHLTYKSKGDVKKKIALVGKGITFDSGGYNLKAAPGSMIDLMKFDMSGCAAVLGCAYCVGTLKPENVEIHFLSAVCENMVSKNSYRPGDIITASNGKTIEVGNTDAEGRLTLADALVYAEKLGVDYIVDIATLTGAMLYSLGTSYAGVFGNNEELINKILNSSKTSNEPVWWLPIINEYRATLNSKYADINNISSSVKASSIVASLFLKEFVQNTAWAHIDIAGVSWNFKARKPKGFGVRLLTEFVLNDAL

HEK293 [15] = experiment: NOD1 signaling inhibitors, primary screen, cell-based, luminescence, uHTS (AID 1578); assay type: functional; conditions: Homo sapiens
HEK293 [16] = experiment: cells; assay type: functional, cell-based; conditions: Homo sapiens
H4 = experiment: Luminescence Cell-Based Dose Response HTS to Identify Activators of 5'UTR Stem-Loop Driven Prion Protein mRNA Translation in H4 Neuroglioblastoma Cells. [Related pubchem assays: 1829 (Project Summary), 1814 (Primary HTS)]; assay type: functional; conditions: Homo sapiens
HEK293 [17] = experiment: cells; assay type: functional, cell-based; conditions: Homo sapiens; remark: listed apart in the source
[18] = biological target: Nucleotide-binding oligomerization domain-containing protein 2 (Homo sapiens, UniProt Q9HC29); experiment: NOD2 signaling inhibitors, cell-based, luminescence, uHTS, HEK293 (AID 1566); assay type: functional
Sequence of Nucleotide-binding oligomerization domain-containing protein 2 (Q9HC29 whole entry, the tested form may be a part): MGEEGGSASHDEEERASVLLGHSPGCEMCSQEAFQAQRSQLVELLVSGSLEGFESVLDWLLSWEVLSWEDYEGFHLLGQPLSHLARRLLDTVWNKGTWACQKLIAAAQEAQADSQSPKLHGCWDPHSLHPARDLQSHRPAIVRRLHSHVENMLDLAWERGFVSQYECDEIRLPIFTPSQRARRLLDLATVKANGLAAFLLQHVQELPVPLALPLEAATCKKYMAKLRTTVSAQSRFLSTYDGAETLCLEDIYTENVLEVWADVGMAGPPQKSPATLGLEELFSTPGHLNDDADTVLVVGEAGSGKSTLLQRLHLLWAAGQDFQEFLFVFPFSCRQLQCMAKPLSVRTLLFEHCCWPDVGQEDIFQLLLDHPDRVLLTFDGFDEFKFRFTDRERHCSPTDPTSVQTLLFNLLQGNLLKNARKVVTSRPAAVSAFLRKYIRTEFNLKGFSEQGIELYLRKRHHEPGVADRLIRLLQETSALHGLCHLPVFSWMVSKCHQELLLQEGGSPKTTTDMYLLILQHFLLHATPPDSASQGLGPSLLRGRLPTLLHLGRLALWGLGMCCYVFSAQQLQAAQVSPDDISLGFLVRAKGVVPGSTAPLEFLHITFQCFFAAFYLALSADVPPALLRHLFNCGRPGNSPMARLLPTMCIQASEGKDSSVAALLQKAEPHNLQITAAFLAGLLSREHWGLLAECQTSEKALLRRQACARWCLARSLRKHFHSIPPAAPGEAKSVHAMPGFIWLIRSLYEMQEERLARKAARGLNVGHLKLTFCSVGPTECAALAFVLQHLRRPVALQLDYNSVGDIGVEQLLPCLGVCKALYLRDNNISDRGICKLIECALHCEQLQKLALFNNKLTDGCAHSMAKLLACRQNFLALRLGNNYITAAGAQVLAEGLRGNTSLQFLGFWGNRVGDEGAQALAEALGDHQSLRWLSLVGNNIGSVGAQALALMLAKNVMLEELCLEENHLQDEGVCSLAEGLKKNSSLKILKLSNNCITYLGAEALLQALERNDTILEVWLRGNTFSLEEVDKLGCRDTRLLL

HEK293 [19] = experiment: NOD2 signaling inhibitors in MDP-stimulated cells, cell-based, uHTS, luminescence (AID 2001); assay type: functional; conditions: Homo sapiens
HEK293 [20] = experiment: cells; assay type: functional, cell-based; conditions: Homo sapiens; remark: listed apart in the source

## O=C(Cc1cc(O)[nH]n1)N/N=C/C=C/c1ccccc1
[1]
  AC50: 3.17 µM (active)
Protein RecA
  EC50: 2.76 µM (active)
[2]
  IC50: 7.45 µM (active)
[3]
  IC50: 23.5 µM (active)

## Cc1ccc2[nH]c3c(c2c1)CCCC3NC(=O)CCl (configuration not stated)
BJ [4]
  EC50: 13.8 µM (active)
BJ [5]
  EC50: 8.7 µM (active)
BJ [6]
  EC50: > 150 µM (inconclusive)
[7]
  EC50: 7.41 µM (inconclusive)
[8]
  IC50: > 80 µM (inactive)
HEK293 [9]
  AC50: 2.36 µM (active)
BJ [10]
  EC50: 0.565 µM (active)

## Cc1cc([N+](=O)[O-])ccc1NCc1ccco1
[11]
  EC50: 5.96 µM (active)
[12]
  IC50: 23.1 µM (active)
[13]
  EC50: > 53 µM (inactive)
[14]
  IC50: 7.36 µM (active)

## O=C(COc1ccc2ccccc2c1)Nc1cccc(C(=O)Nc2ccccc2C(=O)O)c1
Leucine aminopeptidase
  IC50: 8.71 µM (active)
[12]
  IC50: 2.55 µM (active)
[13]
  EC50: > 53 µM (inactive)
[14]
  IC50: 7.44 µM (active)

## CCS(=O)(=O)c1nnnn1-c1ccccc1S(C)(=O)=O
HEK293 [15]
  EC50: 11.7 µM (active)
HEK293 [16]
  IC50: 6.55 µM (active)
H4
  EC50: > 120 µM (not active)
HEK293 [17]
  IC50: > 20 µM (inactive)
[18]
  EC50: > 20 µM (inactive)
HEK293 [19]
  IC50: 9.2 µM (active)
HEK293 [20]
  IC50: > 20 µM (inactive)
HEK293 [9]
  AC50: 11.3 µM (active)

Source: ChEMBL document CHEMBL1201862, “PubChem BioAssay data set” (2004)
